In the supplement of paper PMC10307832:

Assays:
Assay in all cases: relative viability (nuclei count vs DMSO), 5 days (fraction); higher = more cells survive
CAL-12T = test system: CAL-12T
Procedure, shortened: (§1)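 A single step with final 0.05% Triton X-100, 1% formaldehyde and 1 ug/ml Hoechst fixed the cells and stained nuclei 5 days after treatment. Lung cancer cell lines in 1536-well plates had been treated by pin tool the day after seeding with one drug alone or a fixed anchor-drug dose plus five library-drug doses (not always all listed) in √10 steps, and nuclei were counted on 4× images. Relative viability is the ratio of nuclei in treated wells to nuclei in vehicle wells, taken as the median of duplicate plates.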

COR-L 105 = test system: COR-L 105
Procedure, shortened: as §1

EMC-BAC-2 = test system: EMC-BAC-2
Procedure, shortened: as §1

H3255 = test system: H3255
Procedure, shortened: as §1

LC-2-ad = test system: LC-2-ad
Procedure, shortened: as §1

LK-2 = test system: LK-2
Procedure, shortened: as §1

NCI-H1395 = test system: NCI-H1395
Procedure, shortened: as §1

NCI-H1437 = test system: NCI-H1437
Procedure, shortened: as §1

NCI-H1651 = test system: NCI-H1651
Procedure, shortened: as §1

NCI-H1755 = test system: NCI-H1755
Procedure, shortened: as §1

NCI-H1793 = test system: NCI-H1793
Procedure, shortened: as §1

NCI-H1915 = test system: NCI-H1915
Procedure, shortened: as §1

NCI-H1944 = test system: NCI-H1944
Procedure, shortened: as §1

NCI-H2085 = test system: NCI-H2085
Procedure, shortened: as §1

NCI-H2087 = test system: NCI-H2087
Procedure, shortened: as §1

NCI-H2228 = test system: NCI-H2228
Procedure, shortened: as §1

NCI-H2342 = test system: NCI-H2342
Procedure, shortened: as §1

NCI-H2347 = test system: NCI-H2347
Procedure, shortened: as §1

NCI-H522 = test system: NCI-H522
Procedure, shortened: as §1

NCI-H661 = test system: NCI-H661
Procedure, shortened: as §1

PC-3 [JPC-3] = test system: PC-3 [JPC-3]
Procedure, shortened: as §1

SK-LU-1 = test system: SK-LU-1
Procedure, shortened: as §1

`COCC1(CO)C(=O)C2CCN1CC2` (stereo unspecified) [PRIMA-1MET] + COc1cccc2cc(-c3nc([C@H]4CC[C@H](C(=O)O)CC4)n4ncnc(N)c34)[nH]c12 [OSI-027] (partner 0.5 µM) was tested, and the relative viability (CAL-12T; first compound 0.2 µM) was 0.7, the relative viability (CAL-12T; first compound 0.6325 µM) was 0.608 and the relative viability (CAL-12T; first compound 2 µM) was 0.807. For the same molecule, the relative viability (CAL-12T; first compound 6.325 µM) was 0.798, the relative viability (CAL-12T; first compound 20 µM) was 0.106 and the relative viability (COR-L 105; first compound 0.2 µM) was 0.899. It also gave a relative viability (COR-L 105; first compound 0.6325 µM) of 0.66, a relative viability (COR-L 105; first compound 2 µM) of 0.488 and a relative viability (COR-L 105; first compound 6.325 µM) of 0.662. The relative viability (COR-L 105; first compound 20 µM) was 0.0915, the relative viability (EMC-BAC-2; first compound 0.2 µM) was 0.509 and the relative viability (EMC-BAC-2; first compound 0.6325 µM) was 0.385. The relative viability (EMC-BAC-2; first compound 6.325 µM) was 0.366, the relative viability (EMC-BAC-2; first compound 20 µM) was 0.322 and the relative viability (H3255; first compound 0.2 µM) was 0.642. The relative viability (H3255; first compound 0.6325 µM) was 0.629, the relative viability (H3255; first compound 2 µM) was 0.562 and the relative viability (H3255; first compound 6.325 µM) was 0.658. It also gave a relative viability (H3255; first compound 20 µM) of 0.498, a relative viability (LC-2-ad; first compound 0.2 µM) of 0.854 and a relative viability (LC-2-ad; first compound 2 µM) of 0.729. The relative viability (LC-2-ad; first compound 6.325 µM) was 0.898, the relative viability (LC-2-ad; first compound 20 µM) was 0.819 and the relative viability (LK-2; first compound 0.2 µM) was 0.201. It also gave a relative viability (LK-2; first compound 0.6325 µM) of 0.186, a relative viability (LK-2; first compound 2 µM) of 0.155 and a relative viability (LK-2; first compound 6.325 µM) of 0.149. The relative viability (LK-2; first compound 20 µM) was 0.118, the relative viability (NCI-H1395; first compound 0.2 µM) was 0.605 and the relative viability (NCI-H1395; first compound 0.6325 µM) was 0.492. For the same molecule, the relative viability (NCI-H1395; first compound 2 µM) was 0.647, the relative viability (NCI-H1395; first compound 6.325 µM) was 0.659 and the relative viability (NCI-H1395; first compound 20 µM) was 0.6. The relative viability (NCI-H1437; first compound 0.2 µM) was 1.03, the relative viability (NCI-H1437; first compound 0.6325 µM) was 0.945 and the relative viability (NCI-H1437; first compound 2 µM) was 0.794. The relative viability (NCI-H1437; first compound 6.325 µM) was 0.893, the relative viability (NCI-H1437; first compound 20 µM) was 0.887 and the relative viability (NCI-H1651; first compound 0.2 µM) was 0.801. The relative viability (NCI-H1651; first compound 0.6325 µM) was 0.756, the relative viability (NCI-H1651; first compound 2 µM) was 0.636 and the relative viability (NCI-H1651; first compound 6.325 µM) was 0.669. It also gave a relative viability (NCI-H1651; first compound 20 µM) of 0.701, a relative viability (NCI-H1755; first compound 0.2 µM) of 0.664 and a relative viability (NCI-H1755; first compound 0.6325 µM) of 0.668. The relative viability (NCI-H1755; first compound 2 µM) was 0.402, the relative viability (NCI-H1755; first compound 6.325 µM) was 0.682 and the relative viability (NCI-H1755; first compound 20 µM) was 0.673. The relative viability (NCI-H1793; first compound 0.2 µM) was 0.255, the relative viability (NCI-H1793; first compound 0.6325 µM) was 0.221 and the relative viability (NCI-H1793; first compound 6.325 µM) was 0.298. It also gave a relative viability (NCI-H1793; first compound 20 µM) of 0.276, a relative viability (NCI-H1915; first compound 0.2 µM) of 0.475 and a relative viability (NCI-H1915; first compound 0.6325 µM) of 0.582. It also gave a relative viability (NCI-H1915; first compound 6.325 µM) of 0.443, a relative viability (NCI-H1915; first compound 20 µM) of 0.578 and a relative viability (NCI-H1944; first compound 0.2 µM) of 0.408. The relative viability (NCI-H1944; first compound 0.6325 µM) was 0.359, the relative viability (NCI-H1944; first compound 2 µM) was 0.3 and the relative viability (NCI-H1944; first compound 6.325 µM) was 0.409. The relative viability (NCI-H1944; first compound 20 µM) was 0.393, the relative viability (NCI-H2085; first compound 0.2 µM) was 0.707 and the relative viability (NCI-H2085; first compound 0.6325 µM) was 0.665. It also gave a relative viability (NCI-H2085; first compound 2 µM) of 0.315, a relative viability (NCI-H2085; first compound 6.325 µM) of 0.548 and a relative viability (NCI-H2085; first compound 20 µM) of 0.194. The relative viability (NCI-H2087; first compound 0.2 µM) was 0.355, the relative viability (NCI-H2087; first compound 0.6325 µM) was 0.481 and the relative viability (NCI-H2087; first compound 2 µM) was 0.681. It also gave a relative viability (NCI-H2087; first compound 6.325 µM) of 0.433, a relative viability (NCI-H2087; first compound 20 µM) of 0.262 and a relative viability (NCI-H2228; first compound 0.2 µM) of 0.578. The relative viability (NCI-H2228; first compound 0.6325 µM) was 0.462, the relative viability (NCI-H2228; first compound 2 µM) was 0.442 and the relative viability (NCI-H2228; first compound 6.325 µM) was 0.481. It also gave a relative viability (NCI-H2228; first compound 20 µM) of 0.0285, a relative viability (NCI-H2342; first compound 0.2 µM) of 0.598 and a relative viability (NCI-H2342; first compound 0.6325 µM) of 0.59. It also gave a relative viability (NCI-H2342; first compound 2 µM) of 0.483, a relative viability (NCI-H2342; first compound 6.325 µM) of 0.595 and a relative viability (NCI-H2342; first compound 20 µM) of 0.565. For the same molecule, the relative viability (NCI-H2347; first compound 0.2 µM) was 0.428, the relative viability (NCI-H2347; first compound 0.6325 µM) was 0.496 and the relative viability (NCI-H2347; first compound 2 µM) was 0.247. For the same molecule, the relative viability (NCI-H2347; first compound 6.325 µM) was 0.336, the relative viability (NCI-H2347; first compound 20 µM) was 0.311 and the relative viability (NCI-H522; first compound 0.2 µM) was 0.647. The relative viability (NCI-H522; first compound 0.6325 µM) was 0.671, the relative viability (NCI-H522; first compound 2 µM) was 0.596 and the relative viability (NCI-H522; first compound 6.325 µM) was 0.836. The relative viability (NCI-H522; first compound 20 µM) was 0.13, the relative viability (NCI-H661; first compound 0.2 µM) was 0.747 and the relative viability (NCI-H661; first compound 0.6325 µM) was 0.65. For the same molecule, the relative viability (NCI-H661; first compound 2 µM) was 0.617, the relative viability (NCI-H661; first compound 6.325 µM) was 0.749 and the relative viability (NCI-H661; first compound 20 µM) was 0.622. The relative viability (PC-3 [JPC-3]; first compound 0.2 µM) was 0.709, the relative viability (PC-3 [JPC-3]; first compound 0.6325 µM) was 0.747 and the relative viability (PC-3 [JPC-3]; first compound 2 µM) was 0.816. The relative viability (PC-3 [JPC-3]; first compound 6.325 µM) was 0.77, the relative viability (PC-3 [JPC-3]; first compound 20 µM) was 0.792 and the relative viability (SK-LU-1; first compound 0.2 µM) was 0.321. The relative viability (SK-LU-1; first compound 0.6325 µM) was 0.375, the relative viability (SK-LU-1; first compound 2 µM) was 0.256 and the relative viability (SK-LU-1; first compound 6.325 µM) was 0.338. It also gave a relative viability (SK-LU-1; first compound 20 µM) of 0.0616.
